How the values were obtained:
human GR [1] = target: T1, human GR (Homo sapiens, UniProt P04150); assay: Transrepression Assay (GITAR), TNFα-β-lactamase reporter in U937 cells; type: cell-based; set-up: U937 cells contain an endogenous glucocorticoid receptor (GR); endogenous in cells; host or cells: U937 cells stably transfected with the TNF-alpha promoter/beta-lactamase reporter; conditions: for GITAR > GRAMM % SEP: GITAR Emax minus GRAMMER Emax
T1 sequence (P04150 1-777): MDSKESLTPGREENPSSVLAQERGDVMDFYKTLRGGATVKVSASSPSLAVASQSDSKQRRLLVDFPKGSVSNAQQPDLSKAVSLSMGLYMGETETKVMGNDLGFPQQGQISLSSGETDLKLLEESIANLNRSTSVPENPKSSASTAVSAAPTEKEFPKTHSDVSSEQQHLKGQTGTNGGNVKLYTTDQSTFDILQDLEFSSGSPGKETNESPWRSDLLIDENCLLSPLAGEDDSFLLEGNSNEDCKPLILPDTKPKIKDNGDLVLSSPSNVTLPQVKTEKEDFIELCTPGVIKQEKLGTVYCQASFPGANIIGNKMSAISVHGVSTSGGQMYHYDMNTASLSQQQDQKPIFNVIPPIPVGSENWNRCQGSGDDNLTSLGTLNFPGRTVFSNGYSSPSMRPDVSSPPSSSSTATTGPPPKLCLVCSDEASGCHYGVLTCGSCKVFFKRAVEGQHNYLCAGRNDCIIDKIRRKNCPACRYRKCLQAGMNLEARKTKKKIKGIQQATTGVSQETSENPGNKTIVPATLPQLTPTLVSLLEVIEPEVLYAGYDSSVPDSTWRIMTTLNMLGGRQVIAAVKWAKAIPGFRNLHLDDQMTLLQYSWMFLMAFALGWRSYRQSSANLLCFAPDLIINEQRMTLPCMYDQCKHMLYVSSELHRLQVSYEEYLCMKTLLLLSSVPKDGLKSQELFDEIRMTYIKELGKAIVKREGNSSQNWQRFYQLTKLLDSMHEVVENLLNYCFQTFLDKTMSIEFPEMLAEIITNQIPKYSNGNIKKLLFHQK
From the text: This assay assesses the ability of test compounds to control transcription from the TNFα-β-lactamase reporter gene in U937 cells, a human myelomonocytic leukemia cell line that naturally expresses the human GR. The assay measures compound dependent-repression of the TNFa promoter linked to a reporter gene.
The human U937 cells that had been stablely transfected with the TNF-α promoter driving β-lactamase are used for this assay. U937 cells contain an endogenous glucocorticoid receptor (GR). Cells are maintained in RPMI 1640 Growth medium (Gibco Cat#11875-093) containing 25 mM HEPES, 10% FBS, 2 mM L-Glutamine, 1 mM Sodium pyruvate, 25 μg/ml Gentamicin (Gibco Cat#15710-064), 1:1000 2-Mercaptoethanol (Gibco Cat#21985-023) and 0.8 mg/ml G418 (Gibco Cat#10131-027). The density of the cells in the flask needs to be about 1×10^6−3×10^6/ml at the time of harvest. Usually, the cells are split to 1.2˜1.4×10^5/ml (1:10) 3 days prior to the assay. 50,000 cells/well are plated in 96 well black-walled plates the day of assay. Test compounds are added 10 μL/well, and cells are incubated at 37° C. for 30˜45 min. For assaying compounds, first dilute 1:10 in DMSO to make 1 mM, then further dilute 1:100 in medium to make 10× stock prior to adding to the cells. Add 50 ng/mlPMA (Sigma, cat# P8139) 10 μL/well to a final concentration 5 ng/ml, and 1 μg/ml LPS (Sigma, cat# L4130) 10 μL/well to a final concentration 100 ng/ml. Incubate cells at 37° C. overnight for ˜18 hr. PMA is stored frozen as 100 μg/ml stock in DMSO. Dilute 1:10 in DMSO for a working stock of 10 μg/ml and store at −20 C. For assaying, dilute the 10 μg/ml working stock 1:200 in medium to make a 10× solution (50 ng/ml). Store frozen LPS at 1 mg/ml in PBS, dilute 1:1000 in medium to make 10× (1 μg/ml) for the assay. Add 6× loading buffer (CCF2-AM) 20 μL/well, and incubate at room temperature for 70˜90 min. […] The activity repressed by 100 nM dexamethasone alone is set as 100% activity.

human GR [2] = target: T1, human GR; assay: Trans-Activation Modulation of Glucocorticoid Receptor (GRAMMER), MMTV-LUC reporter, agonist mode; type: cell-based; set-up: endogenous in cells; conditions: maximum activity; for Emax: A549, A549 cells, read-out: Transactivation A549 Cells GRAMMER Emax
From the text: This assay assesses the ability of test compounds to control transcription from the MMTV-LUC reporter gene in lung adenocarcinoma A549 cells or MDA-MB-453 cells, a human breast cancer cell line that naturally expresses the human GR. The assay measures induction of a modified MMTV LTR/promoter linked to the LUC reporter gene.
The routine transient assay consists of plating 7,000-25,000 cells/well of a white, clear-bottom 96-well plate. Alternatively, 384-well plates can be used at a cell concentration of 10,000/well. The media that the cells are plated in is “exponential growth medium” which consists of phenol red-free RPMI1640 containing 10% FBS, 4 mM L-glutamine, 20 mM HEPES, 10 ug/mL human insulin, and 20 ug/mL gentamicin. Incubator conditions are 37° C. and 5% CO2. The transfection is done in batch mode. The cells are trypsinized and counted to the right cell number in the proper amount of fresh media. It is then gently mixed with the FuGene6/DNA mix and plated onto the 96 or 384-well plate, all the wells receive 100 uL or 40 uL, respectively, of medium+lipid/DNA complex then incubated 37° C. overnight. The transfection cocktail consists of serum-free OptiMEM, FuGene6 reagent and DNA. The manufacturer's (Roche Biochemical) protocol for cocktail setup is as follows: The lipid to DNA ratio is approximately 2.5:1 and the incubation time is 20 min at room temperature. Sixteen to 24 hours after transfection, the cells are treated with dexamethasone to a final concentration of 10 nM as well as the compound of interest, such that final DMSO (vehicle) concentration is equal to or less than 1%. Each plate also contains samples that are treated with 10 nM dexamethasone alone, which is used as the 100% activity control. The cells are exposed to the compounds for 24 hours. After 24 hours, the cells are lysed by a Promega cell culture lysis buffer for approximately 30 min and then the luciferase activity in the extracts is assayed in the 96-well format luminometer. In 384-well format, Steady-Glo (Promega) or Steady-Lite (PerkinElmer) can be used by adding an equal volume of reagent to the media present in each well. Activity induced by 10 nM dexamethasone alone is set at 100% activity. Antagonist activity is calculated by determining the decrease in dexamethasone-induced activity in response to compound treatment relative to samples that were treated with dexamethasone alone. […] This transactivation assay can be performed in an agonist and antagonist mode to identify these different activities.

[3] = U-937, U937 cells, maximum activity, read-out: Transrepression U937 Cells GITAR Emax
[4] = U-937, activity repressed by 100 nM dexamethasone alone set as 100%, read-out: maximal activity in the transrepression (GITAR) assay

| SMILES | GITAR > GRAMM % SEP (human GR [1]) [%] | Emax (human GR [1]; [3]) [%] | Emax (human GR [1]; [4]) [%] | Emax (human GR [2]) [%] | Transrepression U937 Cells GITAR Emax (human GR [1]; U937 cells, maximum activity) [%] | Transactivation A549 Cells GRAMMER Emax (human GR [2]; A549 cells) [%] |
| --- | --- | --- | --- | --- | --- | --- |
| C[C@]12Cc3cnn(-c4ccc(F)cc4)c3C=C1CC[C@@H]2CN(CC1CC1)S(=O)(=O)c1ccccc1Cl [Example 12, 2-chloro-N-(cyclopropylmethyl)-N-{[(4αR,5S)-1-(4-fluorophenyl)-4α-methyl-1,4,4α,5,6,7-hexahydrocyclopenta[f]indazol-5-yl]methyl}benzenesulfonamide] | 29.8 | 64.2 | > 5 | 34.4 | – | – |
| C[C@]12Cc3cnn(-c4ccc(F)cc4)c3C=C1CC[C@@H]2CN(CC1CC1)S(=O)(=O)c1ccccc1Cl [Example 22, 2-chloro-N-(cyclopropylmethyl)-N-{[(4αR,5S)-1-(4-fluorophenyl)-4α-methyl-1,4,4α,5,6,7-hexahydrocyclopenta[f]indazol-5-yl]methyl}benzenesulfonamide] | 43.9 | – | – | – | 71.8 | 27.9 |
| C[C@]12Cc3cnn(-c4ccc(F)cc4)c3C=C1CC[C@@H]2CN(CCc1ccccc1F)S(=O)(=O)C1CC1 [Example 101, N-[2-(2-fluorophenyl)ethyl]-N-{[(4αR,5S)-1-(4-fluorophenyl)-4α-methyl-1,4,4α,5,6,7-hexahydrocyclopenta[f]indazol-5-yl]methyl}cyclopropanesulfonamide] | 32.6 | 95.4 | > 5 | 62.8 | – | – |

Next, values leading:

| GITAR > GRAMM % SEP (human GR [1]) [%] | Emax (human GR [1]; [3]) [%] | Emax (human GR [1]; [4]) [%] | Emax (human GR [2]) [%] | Transrepression U937 Cells GITAR Emax (human GR [1]; U937 cells, maximum activity) [%] | Transactivation A549 Cells GRAMMER Emax (human GR [2]; A549 cells) [%] | SMILES |
| --- | --- | --- | --- | --- | --- | --- |
| 21.0 | 23.8 | > 5 | 2.7 | – | – | C[C@]12Cc3cnn(-c4ccc(F)cc4)c3C=C1CC[C@@H]2CN(CCO)S(=O)(=O)c1ccc(-c2cnco2)s1 [Example 57, N-{[(4αR,5S)-1-(4-fluorophenyl)-4α-methyl-1,4,4α,5,6,7-hexahydrocyclopenta[f]indazol-5-yl]methyl}-N-(2-hydroxyethyl)-5-(1,3-oxazol-5-yl)thiophene-2-sulfonamide] |
| 42.5 | 68.5 | > 5 | 26 | – | – | C[C@]12Cc3cnn(-c4ccc(F)cc4)c3C=C1CC[C@@H]2CN(CCO)S(=O)(=O)c1ccc(C#N)cc1 [Example 62, 4-cyano-N-{[(4αR,5S)-1-(4-fluorophenyl)-4α-methyl-1,4,4α,5,6,7-hexahydrocyclopenta[f]indazol-5-yl]methyl}-N-(2-hydroxyethyl)benezenesulfonamide] |
